# Reference: patent publication US20070161547A1, “Modulation of survivin expression” (priority 2003, published 2007)
# Read-outs that look alike come from different tables or passages of the source.
# Experiments:
# survivin protein = test: IC50 of dsRNA for survivin protein, quantitative Western blot ("W"); assay type: cell-based, human; details: W (Western blot), HeLa cells
# Protocol: Western blot analysis (immunoblot analysis) is carried out using standard methods. Cells are harvested 16-20 hours after oligonucleotide treatment, washed once with PBS, suspended in Laemmli buffer (100 μl/well), boiled for 5 minutes and loaded on a 16% SDS-PAGE gel. Gels are run for 1.5 hours at 150 V, and transferred to membrane for western blotting. Appropriate primary antibody directed to survivin is used, with a radiolabelled or fluorescently labeled secondary antibody directed against the primary antibody species. Bands are visualized using a PHOSPHORIMAGER™ (Molecular Dynamics, Sunnyvale, Calif.).
# (§1) For western blot analysis, cells are plated in 10 cm tissue culture dishes (Falcon, #3003) at a density of 7.5×10^5 cells/dish. For RT-PCR analysis, 96-well plates (Corning Incorporated, #3596) are plated with 1×10^4 cells/well. Lipofectin (GIBCO/Invitrogen) transfection reagent is used at a concentration of 3 ul/ml OPTIMEM reduced serum medium (Gibco/Invitrogen)/100 nM siRNA duplex. Lipofectin reagent is incubated with OPTIMEM medium for 30 minutes prior to the addition of siRNA. The desired amount of siRNA is added and mixed. Further 1:1 dilutions are performed in OPTIMEM. Cells are washed twice with 1× phosphate buffered saline and then treated with the siRNA/Lipofectin mixture in OPTIMEM. After a 4 hr incubation period, OPTIMEM medium is replaced with complete growth medium. Cells are harvested after additional 16-20 hrs for Western blot or RT-PCR analysis.
# At the end of the incubation period culture medium is removed and cells are washed twice with PBS. Cells are lysed in RIPA buffer (20 mM Tris-HCl, pH 7.4, 5 mM EDTA, 50 mM NaCl, 10 mM Sodium Pyrophosphate, 50 mM Sodium Fluoride, and 1% Nonidet P40) plus Complete™ Mini protease inhibitor tablets (Roche, #1836153) and 1 mM Sodium orthovanadate (Sigma) by directly adding buffer to the plate. Lysates are collected by scrapping, transferred to microfuge tubes and cleared from the cellular debris by centrifugation at 14,000 rpm for 30 minutes at 4° C. Protein concentrations are determined using BCA protein assay yeagents (Pierce). Total cellular protein is subjected to SDS-PAGE and transferred onto Immobilon-P membranes (Millipore, #IPVHO91). Membranes are probed with primary antibodies to survivin (R&D Systems, #AF886) and to β-Actin (Sigma, #A5441). Horseradish peroxidase linked Anti-rabbit Ig, and anti-mouse Ig, antibodies (Pharmacia) are used as secondary antibodies. Antigen-antibody complexes are visualized by incubation of membrane in SuperSigmal West Pico chemiluminescence reagents (Pierce) for 5 minutes followed by capturing of the chemiluminescence using Fluor-S imager (Biorad) equipped with the cool CCD camera. The protein bands of interest for each sample are quantified using Quantity One software (Biorad). The percentage inhibition for each samples are calculated by comparing the survivin/Actin protein ratio for the sample to survivin/Actin protein ratio for the untreated control. The IC50 is derived from the non-linear regression analysis of the percentage inhibition data using GraphPad Prism software (GraphPad Software).
# The constructs tested comprise the antisense strand in the 5′-3′ orientation, and the sense strand in the 5′ to 3′ orientation, In Table 15, “D” is dose response (mRNA levels) and “W” is Western blot. All internucleoside linkages are phosphodiester unless otherwise noted by a lowercase “s” indicating a phosphorothioate linkage.
# human survivin mRNA = test: IC50 of dsRNA for survivin mRNA, dose response by quantitative RT-PCR ("D"); assay type: cell-based; details: D (dose response, mRNA levels), read-out: IC50
# Protocol: Representative parameters that can be studied include, for example, translation of survivin mRNAs or survivin protein synthesis; effect on surrogate markers; or any other parameter that is indicative of potential dsRNA therapeutic effectiveness that can be conveniently measured in vitro.
# as §1
# Total RNA is isolated using RNeasy® 96 kit according to recommended protocol (Qiagen). Briefly, cells are washed with 200 ul PBS after removal of growth medium. Following washing, 100 μl buffer RLT is added, plate is shaken vigorously for about 20 seconds. To each well 100 μl 70% ethanol are added and mixed by pipetting up and down three times. Samples are then applied into the wells of the RNeasy 96 plate placed in the QIAvac top base of the QIAvac 96 manifold, which is attached to a vacuum source. Vacuum is applied for 30 seconds or until transfer is complete. To each well 80 μl of DNase I incubation mix (20 mM Tris-HCl, pH 8.4, 2 mM MgCl2, 50 mM KCl and 225 Units/ml DNase I from Invitrogen) is added and incubated at room temperature for 30 minutes. Buffer RW1 (1 ml/well) is added and the vacuum is applied for 30 seconds. Buffer RPE (1 ml/well) is added to each well and vacuum is applied for 30 seconds. Washing steps with buffer RW1 and RPE1 are repeated once more. The plate is then removed from the manifold and blotted dry on paper towels. The plate is placed back in the QIAvac manifold and the vacuum is applied for 10 minutes. To elute RNA 30 μl of RNase-free water is added directly onto the membrane of each well, incubated for 1 minutes and vacuum is applied for 30 seconds. In order to maximize the recovery of total RNA the elution step is repeated with additional 30 μl/well RNase-free water.
# Quantitation of survivin and GAPDH mRNA levels is determined by real-time quantitative RT-PCR using the ABI PRISM® 7900 Sequence Detection System (Applied Biosystems). RT-PCR reactions are carried out by adding 15 ul of TaqMan One Step PCR Master Mix (Applied Biosystems, #4309169) reagents (containing 100 nM each of forward primer and reverse primer, and 200 nM probe) to 96-well plates with 10 μl total RNA. For human survivin, the forward PCR primer is: 5′[…]3′ (SEQ ID NO: 186), and the reverse primer is: 5′[…]3′ (SEQ ID NO: 187). The survivin TaqMan® probe used is 5′(FAM)[…]3′ (SEQ ID NO: 188) (Biosearch Technologies, Inc.). This primer-probe set, designed to SEQ ID No 14 was used for all experiments in Examples 15 to the end. For human GAPDH, TaqMan GAPDH Control Reagent Kit is used (Applied Biosystems, #402869). The percentage inhibition for each samples are calculated by comparing the survivin/GAPDH mRNA ratio for the sample to survivin/GAPDH mRNA ratio for the untreated control. The IC50 is derived from the non-linear regression analysis of the percentage inhibition data using GraphPad Prism software (GraphPad Software).
# The constructs tested comprise the antisense strand in the 5′-3′ orientation, and the sense strand in the 5′ to 3′ orientation, In Table 15, “D” is dose response (mRNA levels) and “W” is Western blot. […]
Substance,IC50 (survivin protein),IC50 (human survivin mRNA; HeLa cells),IC50 (human survivin mRNA; U-87 MG cells)
339058_339088 (antisense AACAAAAUAAGAAAGCCAUG; sense CAUGGCUUUCUUAUUUUGUU; siRNA; unmodified RNA),7.23 nM,2.96 nM,
339056_339086 (antisense UAAGGAACCUGCAGCUCAGA; sense UCUGAGCUGCAGGUUCCUUA; siRNA; unmodified RNA),7.5 nM,1.72 nM,0.51 nM
339052_339082 (antisense GCAAAAGGGACACUGCCUUC; sense GAAGGCAGUGUCCCUUUUGC; siRNA; unmodified RNA),≥ 100 nM,2.41 nM,1.15 nM
339060_339090 (antisense AGUUUGUGCUAUUCUGUGAA; sense UUCACAGAAUAGCACAAACU; siRNA; unmodified RNA),4.43 nM,3.38 nM,
339048_339078 (antisense AUUUGAAAAUGUUGAUCUCC; sense GGAGAUCAACAUUUUCAAAU; siRNA; unmodified RNA),3.97 nM,,0.34 nM
339045_339075 (antisense AUCCAUGGCAGCCAGCUGCU; sense AGCAGCUGGCUGCCAUGGAU; siRNA; unmodified RNA),5.5 nM,3.3 nM,0.68 nM
